This is an account of results in US20050142634A1, “Novel modulator of non-genomic activity of nuclear receptors (mnar) and uses thereof” (Wyeth, priority 2001, published 2005).

The test system of series [1] is ERα. As to the kind of experiment: MNAR effect on ER-mediated transcription, 2xERE-tk-luciferase reporter in HepG2 cells. Format: cell-based. The conditions noted are these: for MNAR stimulation of ER activity with ligand / effect of kinase inhibitor on MNAR stimulation of ER activity / effect of Src inhibitor on MNAR stimulation of E2 induced ERα activity: HepG2, ERα and MNAR; for MNAR stimulation of ER activity with ligand: ligand at 10 nM; for effect of kinase inhibitor on MNAR stimulation of ER activity: 10 nM E2 plus 1 μM inhibitor; for effect of Src inhibitor on MNAR stimulation of E2 induced ERα activity: treated for 24 hr with 17β-estradiol and inhibitor. The method, then:
Transient Transfection Analysis: HepG2 and COS-7 cells were routinely maintained in DMEM supplemented with 10% FBS. Either 50,000 cells per well of HepG2 or 30,000 per well of COS-7 were seeded in 96 well plates in DMEM without phenol red supplemented with 10% charcoal stripped serum. 100 ng of 2×ERE-tk-Luc reporter, 10 ng of pCMV-O-gal internal control, either 1 ng of pcDNA3.1 ERα or 5 ng of pcDNA3.1 ERβ expression vector with or without increasing amount of pcDNA3.1 MNAR or pcDNA3.1 SRC3 expression plasmids were transfected using 0.5 ul of lipofectamine 2000 (Life Technologies, Rockville, Md.) according to protocol. Cells were stimulated either with 10^−8M 17-b-estradiol, tamoxifen, or ICI for 24 hr before being processed for luciferase and β-Galactosidase activity.
A—HepG2 cells were transfected with expression plasmids for ERα, MNAR and/or SRC3. […] B—HepG2 cells were transfected with expression vectors for ERαand MNAR. […] (SEQ ID NO: 11) from Sequitur, Inc. (Natick, Mass.) or reverse control (C) oligomers complexed with 1 μg/ml of Lipofectamine 2000 in white media.
To evaluate if MNAR overexpression affects transcriptional activity of ER, HepG2 cells were transiently cotransfected with plasmids for expression of ERα and MNAR.
A general note: Reporter assays use an easily measured gene product as a stand-in for the process of interest.

Series [2] deals with ERα.
Description: MNAR-Nuclear receptors interaction analysis was performed. […] Formed complexes were isolated using anti-FLAG sepharose beads, boiled in 2×SDS buffer and loaded on SDS gel.
With full-length flag-MNAR, we further evaluated whether MNAR interaction with estrogen receptors is affected by ER ligands. […] Formed complexes were isolated using anti-FLAG sepharose beads.
Series [3] relates to cSrc. The conditions noted are these: ERα with MNAR and cSrc, 1 μM E2, compared to unliganded ERα. The source says: ER-MNAR-cSrc Interaction Analysis. […] Formed complexes were isolate by pulled-down with anti-cSrc or anti-Lck antibodies and protein A agarose, boiled in 2×SDS buffer and resolved on an SDS-PAGE gel. Gel was dried and subjected to autoradiography.
To address this question, we have used in vitro transcribed/translated estrogen receptors ERα, ERβ and MNAR. […] Formed complexes were pulled-down with anti-cSrc or anti-Lck antibodies and protein A sepharose and then resolved on an SDS gel.

Series [4] relates to MNAR. The experiment in a line: MNAR expression in MCF-7 cells (TaqMan, Western blotting). In kind it is cell-based, human. The method, then: (§1) A—HepG2 cells were transfected with expression plasmids for ERα, MNAR and/or SRC3. […] B—HepG2 cells were transfected with expression vectors for ERαand MNAR. […] C—MCF-7 cells were transfected with 100 nM antisense (AS) […] (SEQ ID NO: 11) from Sequitur, Inc. (Natick, Mass.) or reverse control (C) oligomers complexed with 1 μg/ml of Lipofectamine 2000 in white media. […] MNAR antiserum was generated against […] peptide encoding amino acids 509-520 ([…]) (SEQ ID NO: 31) of the MNAR.
(§2) It has been previously reported that activation of Src by estradiol triggers Ras/Erks kinase pathway. We expected that MNAR induced Src activation may lead to activation of Erk kinases 1 and 2. […] MNAR antisense oligonucleotide (SEQ ID NO:11) was developed at Sequitur Inc. (Natick, Mass.).
(§3) We next used an antisense approach to assess MNAR's role in estrogen regulation of gene transcription. […] MCF-7 cells were transfected with 100 nM antisense or reverse control oligomers. […] TaqMan analysis was performed using a primer/probe set designed to target MNAR, pS2 and Cathepsin D—two genes known to be regulated by estrogens in MCF-7 cells. FIG. 9C presents the levels of MNAR, pS2 and Cathepsin D mRNA expression, normalized to GAPDH mRNA.
(In general: In qPCR the cycle at which signal appears reflects the starting amount.)

Series [5] concerns cSrc. The experiment in a line: Kinase reaction on immunoprecipitates from MCF-7 cells ([32P]γATP). In kind it is cell-based, human. The conditions noted are these: material coprecipitated with anti-Src and anti-ER antibodies from MCF-7 cells, E2 10 nM 5 minutes.
Description: FLAG-MNAR (panel A), cSrc (panel B), or ERα (panels C, D and E) were immunoprecipitated from the cell extracts using corresponding antibodies. Immunoprecipitates were incubated with [32P]γATP for 30 minutes at 30° C. (panels A-C), or with [32P]-γATP and enolase (panel D). Kinase reaction was stopped by boiling in 2×SDS buffer. Phosphorylated material was loaded on SDS gel, which was then dried and subjected to autoradiography.
We evaluated whether MNAR and ER interacted and activated Src kinase in MCF-7 cells. […] Flag-MNAR (FIG. 10, panel A), ERα (FIG. 10, panel C and D), and csrc (FIG. 10, panel B) were immunoprecipitated from the cell extracts using their corresponding antibodies. […] Immunoprecipitates were incubated with [32P]γATP at 30° C. for 30 minutes. Reaction was stopped by boiling in 2×SDS buffer and resolved on a SDS PMG.
Series [6] has as its system Erk 1 and 2. As to the kind of experiment: E2 induced Erk kinase 1 and 2 activation in MCF7 cells (Western blotting). In kind it is cell-based, human. The conditions noted are these: for level of total Erk 1 and 2: Erk1/2 antibodies; for effect on E2 induced Erk 1 and 2 activation: MCF7 cells overexpressing MNAR or treated with 100 nM antisense, 10 nM E2 5 minutes.
Source text: as §2
In general terms: Immunoblotting shows a protein as a band on a membrane.

The subject of series [7] is Cathepsin D. The experiment in a line: ER-mediated gene expression in MCF-7 cells (TaqMan). In kind it is cell-based, human. The conditions noted are these: 100 nM antisense. As for the experimental part: as §1, §3
In series [8] the test system is pS2. The description is as above. Format: cell-based, human. The conditions noted are these: 100 nM antisense. As for the experimental part:
as §1, §3

The test system of series [9] is cSrc. As to the kind of experiment: Analysis of cSrc enzymatic activity with acidified enolase as substrate. Format: biochemical. The conditions noted are these: acid denatured enolase as substrate. The method, then:
Analysis of cSrc Enzymatic Activity. […] Before reaction proteins were incubated for 1 hr at 4° C. Phosporylation reaction was started by addition of [32P]-γATP and continued at 30° C. for 10 min. Reaction was stopped by addition of 2×SDS buffer. Phosphorylated proteins were separated by SDS-PAGE and the dried gel was subjected to autoradiography.

Series [10] deals with ER. The experiment in a line: MNAR structural-functional analysis, ER-stimulated transcription in HepG2 cells. In kind it is cell-based. The conditions noted are these: MNAR deletion mutants transfected into HepG2 cells. As for the experimental part:
To delineate the regions of MNAR that are responsible for interaction with estrogen receptor and c-Src tyrosine kinase, we performed functional evaluation of MNAR deletion mutants (FIG. 12). A series of C-terminal truncations of MNAR was generated using specially designed oligonucleotides, by amplifying appropriate fragments and cloning them into appropriate expression vectors. These mutants were tested for their abilities to enhance ER-stimulated transcription when transfected into HepG2 cells.
At the C-terminus, MNAR contains a region rich in both proline and glutamic acid. To delineate the regions on MNAR responsible for interaction with estrogen receptors and c-src tyrosine kinase, a functional evaluation of MNAR deletion mutants was performed (FIG. 12). A series of C-terminal truncations of MNAR was generated using specially designed oligonucleotides, by amplifying appropriate fragments and cloning them into appropriate expression vectors. These mutants were tested for their abilities to enhance ER-stimulated transcription when transfected into HepG2 cells.

Take `CC/C(=C(\c1ccc(O)cc1)c1ccc(OCCN(C)C)cc1)c1ccccc1` [4(OH) tamoxifen]: the “MNAR stimulation of ER activity with ligand” value in series [1] is listed as “do not support MNAR stimulation of ER activity”. Besides, the “ERα interaction with MNAR” value in series [2] is “inhibited”.
For the compound `C[C@]12CC[C@@H]3c4ccc(O)cc4CC[C@H]3[C@@H]1CC[C@@H]2O` [E2, 17β-estradiol, reference compound], the Src-ER-MNAR complex formation result in series [3] is “significant stimulation”. Besides, in series [4] (MCF-7 cells, 10 nM E2 24 hours, normalized to GAPDH mRNA), the “MNAR mRNA expression” value is “substantially stimulated”. Moreover, the “phosphorylation of endogenous protein of approximately 34 kDa” value in series [5] was “stimulated”. For the same compound, in series [6] (MCF7 cells, 10 nM E2 for 5 minutes), the “Erk 1 and 2 phosphorylation” value is given as “Strong E2 induced stimulation”. In addition, the “level of total Erk 1 and 2” value in series [6] (MCF7 cells) was “Neither treatment with MNAR antisense oligonucleotides nor short treatment with E2 affected”.
On to `C[C@]12CC[C@@H]3c4ccc(O)cc4C[C@@H](CCCCCCCCC[S+]([O-])CCCC(F)(F)C(F)(F)F)[C@H]3[C@@H]1CC[C@@H]2O` (stereo partly drawn) [ICI 182,780], for which the “MNAR stimulation of ER activity with ligand” value in series [1] is recorded as “do not support MNAR stimulation of ER activity”.
With `COc1cccc(-c2cc(=O)c3ccccc3o2)c1N` [PD98059], the “effect of kinase inhibitor on MNAR stimulation of ER activity” value in [1] is on record as “abrogate MNAR stimulation of ER activity”.
For `CC(C)(C)n1nc(-c2ccc(Cl)cc2)c2c(N)ncnc21` [PP2], in series [1], the “effect of kinase inhibitor on MNAR stimulation of ER activity” value is “abrogate MNAR stimulation of ER activity” and the “effect of Src inhibitor on MNAR stimulation of E2 induced ERα activity” value is “inhibited MNAR stimulation”.
As to `O=c1c(-c2ccc(O)cc2)coc2cc(O)cc(O)c12` [genesteine, genistein], in [1], the “effect of Src inhibitor on MNAR stimulation of E2 induced ERα activity” value is given as “inhibited MNAR stimulation”.
For the compound “MNAR antisense oligonucleotides: antisense (AS) CATGGAGATGTCCCGGAACAGTGCA (SEQ ID NO: 11) from Sequitur, Inc., targets MNAR (listed as DNA, chemistry not given here; listed as Homo sapiens)”, the MNAR level entry in series [4] (MCF7 cells, 100 nM antisense, Western blotting with MNAR antibodies) is listed as “attenuated”. For the same compound, the MNAR expression result in [4] (MCF-7 cells, 100 nM antisense, TaqMan and Western Blotting) is on record as “significantly inhibited”. For the same compound, the “basal level of Cathepsin D expression” value in series [7] is “did not significantly affect”. The “E2-stimulated Cathepsin D expression” value in series [7] (10 nM E2) was “dramatic reduction”. For the same compound, the “basal level of pS2 expression” value in [8] is listed as “did not significantly affect”. In addition, the “E2-stimulated pS2 expression” value in [8] (10 nM E2) was “dramatic reduction”. For the same compound, the “effect on E2 induced Erk 1 and 2 activation” value in [6] is listed as “attenuated”. Also, the “level of total Erk 1 and 2” value in series [6] (MCF7 cells) is given as “Neither treatment with MNAR antisense oligonucleotides nor short treatment with E2 affected”.
Turning to “MNAR: novel ER interacting protein, 1130 amino acids, cloned from MCF-7 cells”, the cSrc enzymatic activity entry in series [9] was “strongly stimulates”. In series [1] (HepG2 cells transfected with expression plasmid, 2xERE-tk-reporter), the “ERα transcriptional activity on overexpression” value is “stimulation of ERα transcriptional activity”. Further, in [5], the “phosphorylation of endogenous protein of approximately 34 kDa” value is “dramatically augmented”. Further, in [6], the “effect on E2 induced Erk 1 and 2 activation” value is reported as “significantly enhanced”.
For the compound “mutant 2: MNAR mutant containing aa 1-469”, the “ability to enhance ER-stimulated transcription” value in series [10] is reported as “still able to augment ER transcriptional activity”.
For “mutant 3: MNAR mutant containing aa 1-278”, the “ability to enhance ER-stimulated transcription” value in series [10] was “still able to augment ER transcriptional activity”.
Still for that read-out and setting: to “mutant 4: MNAR mutant containing aa 1-189” belongs “still able to augment ER transcriptional activity”.
